Data as given in patent EP4255430B1, “8-HYDROX[…] PROTEASE INHIBITORS FOR USE IN THE PREVENTION AND/OR TREATMENT OF A CORONA VIRUS DISEASE” (Univerza v Ljubljani, priority 2020, dated 2022).

System: SARS-CoV-2
Experiment: High Content Assay: antiviral activity against SARS-CoV-2 in infected Huh7-hACE2 cells (Spike immunofluorescence, infection ratio)
Conditions: for EC50 / EC90: Huh7-hACE2 cells, 0.1 MOI, 20 h; for % of inhibition reached (maximal), based on infection ratio values: within tested concentration range, normalized to 50 µM hydroxychloroquine = 100%; for activity against SARS-CoV-2 in Huh7-hACE2 cells (comparison between inhibitors): qualitative ranking; for EC90: read-out: EC90, the effective concentration capable to inhibit 90% of infection, follows the pre-treated values
[1] = treatment condition not restated in the sentence (follows the pre-treated values)
[2] = pre-treated conditions (compounds added 3 hours prior infection)

SMILES: CN(C)C(=O)[C@H](Cc1ccccc1)NC(=O)C1OC1C(=O)NCCc1ccccn1 (stereo in doubt) [CLIK 148, N-{L-3-trans-[2-(pyridin-2-yl)ethylcarbamoyl]-oxirane-2-carbonyl}-L-Phe dimethylamide]
- EC50 [1]: higher concentrations
- % of inhibition reached (maximal), based on infection ratio values: < 100%

SMILES: N#CCNCc1cc([N+](=O)[O-])c2cccnc2c1O [Compound 17, 2-{[(8-hydroxy-5-nitroquinoline-7-yl)methyl]amino}-acetonitrile]
- EC50 [2]: 1.9 µM
- activity against SARS-CoV-2 in Huh7-hACE2 cells (comparison between inhibitors): highest activity
- EC90: 3.3 µM
- % of inhibition reached (maximal), based on infection ratio values: 100%

SMILES: CC(C)C[C@H](NC(=O)[C@H]1O[C@@H]1C(=O)O)C(=O)NCCCCN=C(N)N (relative stereo) [Compound E64]
- EC50 [1]: higher concentrations
- % of inhibition reached (maximal), based on infection ratio values: < 100%

SMILES: O=[N+]([O-])c1ccc(O)c2ncccc12 [Nitroxoline, 5-nitro-8-hydroxyquinoline]
- EC50 [2]: 1.9 µM
- activity against SARS-CoV-2 in Huh7-hACE2 cells (comparison between inhibitors): highest activity
- EC90: 7.9 µM
- % of inhibition reached (maximal), based on infection ratio values: 100%

SMILES: CC1CCN(Cc2cc([N+](=O)[O-])c3cccnc3c2O)CC1 [Compound 3, 7-[(4-methylpiperidin-1yl)methyl]-5-nitroquinolin-8-ol]
- activity against SARS-CoV-2 in Huh7-hACE2 cells (comparison between inhibitors): stronger effect than CLIK 148, but weaker than Nitroxoline and Compound 17
- EC90: 10 µM
- % of inhibition reached (maximal), based on infection ratio values: 100%

SMILES: CCOC(=O)[C@H]1O[C@@H]1C(=O)N[C@@H](CC(C)C)C(=O)NCCC(C)C [Compound E64d, (2S,3S)-trans-Epoxysuccinyl-L-leucylamido-3-methylbutane ethyl ester]
- % of inhibition reached (maximal), based on infection ratio values: < 100%
